# Test results taken from patent US20220409620A1, “REDUCING IMMUNOGENICITY TO PEGLOTICASE” (Horizon Pharma Rheumatology LLC, priority 2016, published 2022).
# Legend:
# [1] = MTX polyglutamates 1 to 5 in red blood cells, MIRROR OL; assay type: in vivo, human; details: during the treatment course; FIG. 2
# Procedure: Blood samples were collected prior to pegloticase infusion on Day 1 and at the Weeks 4, 8, 22 and 36 Visits or at Day 1 and weeks 14, 24, and 36 visits during the Pegloticase+IMM for MTX Polyglutamate analysis for the open-label and randomized studies, respectively.
# Methods: In the MIRROR OL trial, MTX (15 mg/week) was given orally 4 weeks prior to the first pegloticase dose and continued weekly, in combination with pegloticase 8 mg given intravenously every 2 weeks, for a treatment duration of up to 52 weeks. Pre-infusion samples were collected to measure MTX-PGs 1 to 5 in red blood cells at day 1, week 4, 8, 22, 24 and 36. […] Pegloticase concentrations in serum was measured using a validated enzymatic/fluorescence assay. The limit of quantification is 0.6 μg/mL. Anti-pegloticase/PEG IgG antibodies (ADA) were measured using a validated enzyme linked immunosorbent assay (ELISA). The analysis of MTX Polyglutamates was conducted by Exagen. The impact of MTX on pegloticase PK was evaluated by two methods: (1) Comparing pegloticase exposures (median Cmax and Cmin across visits) with MTX from the MIRROR OL trial to the observed levels in historical monotherapy Phase 3 studies (C0405 and C0406) (Lipsky et al., Arthritis Res Ther 16(2), 2014; Sundy et al., JAMA 306(7), 2011). […]
# [2] = Stability of pegloticase diluted in infusion bags; assay type: physicochemical; details: at 2° C. to 8° C. and at room temperature (20° C. to 25° C.)
# Procedure: Pegloticase diluted in infusion bags was stable for 4 hours at 2° C. to 8° C. (36° F. to 46° F.) and at room temperature (20° C. to 25° C., 68° F. to 77° F.); however, the diluted solution was stored under refrigeration, not frozen, protected from light, and used within 4 hours of dilution. Before administration, the diluted solution of pegloticase was allowed to reach room temperature. Pegloticase in a vial or IV infusion fluid was never subjected to artificial heating.
# [3] = test system: adult patients with uncontrolled gout; experiment: Patient and physician global assessment of gout, open-label study; assay type: in vivo, human; details: Methotrexate Baseline, mITT Population
# Description: Patient Global Assessment: The patient global assessment was collected at the Screening and Week −4 (prior to the first dose of MTX) Visits during the MTX Run-in Period; prior to KXX infusion at the Day 1 and Weeks 14, 24 and 36 Visits during the KXX+MTX Period; at the End of Pegloticase Infusions Visit (if applicable); the Week 52/End of Study/Early Termination Visit and the Post Treatment Periods 3 and 6 Month Follow-up Visits.
# Physician Global Assessment: The physician global assessment was collected at the Screening and Week −4 or week −6 (prior to the first dose of MTX) Visits during the MTX Run-in Period for the open-label and randomized studies, respectively; prior to pegloticase infusion at the Day 1 and Weeks 14, 24 and 36 Visits, and the Day 1 and week 6, 14, 20, 24, 30, 36, and 44 visits during the Pegloticase+IMM Period for the open-label and randomized studies, respectively; at the End of Pegloticase Infusions Visit (if applicable), the Week 52/End of Study/Early Termination Visit and the Post Treatment Periods 3 and 6 Month Follow-up Visits (open-label study).
# [4] = End of Pegloticase Infusions Visit
molecule,measurement,setting,value
"CN(Cc1cnc2nc(N)nc(N)c2n1)c1ccc(C(=O)N[C@@H](CCC(=O)O)C(=O)O)cc1 [MTX, methotrexate]",Concentrations of MTX-PGs,[1],maintained
pegloticase,stability of pegloticase diluted in infusion bags,[2],4 h
same,"Patient Global Assessment of Gout, Change from Baseline, Mean (SD)",[3]; Day 1,0.2 (1.85)
same,"Patient Global Assessment of Gout, Change from Baseline, Median",[3]; Day 1,0.0
same,"Patient Global Assessment of Gout, Observed, Mean (SD)",[3]; Day 1,5.8 (1.76)
same,"Patient Global Assessment of Gout, Observed, Median",[3]; Day 1,6.0
same,"Physician Global Assessment of Gout, Change from Baseline, Mean (SD)",[3]; Day 1,−0.1 (2.35)
same,"Physician Global Assessment of Gout, Change from Baseline, Median",[3]; Day 1,0.0
same,"Physician Global Assessment of Gout, Observed, Mean (SD)",[3]; Day 1,6.0 (2.45)
same,"Physician Global Assessment of Gout, Observed, Median",[3]; Day 1,7.0
same,"Patient Global Assessment of Gout, Change from Baseline, Mean (SD)",[3]; Early Termination Visit,0.7 (2.89)
same,"Patient Global Assessment of Gout, Change from Baseline, Median",[3]; Early Termination Visit,−1.0
same,"Patient Global Assessment of Gout, Observed, Mean (SD)",[3]; Early Termination Visit,5.7 (3.06)
same,"Patient Global Assessment of Gout, Observed, Median",[3]; Early Termination Visit,5.0
same,"Physician Global Assessment of Gout, Change from Baseline, Mean (SD)",[3]; Early Termination Visit,−2.7 (2.08)
same,"Physician Global Assessment of Gout, Change from Baseline, Median",[3]; Early Termination Visit,−2.0
same,"Physician Global Assessment of Gout, Observed, Mean (SD)",[3]; Early Termination Visit,3.7 (2.08)
same,"Physician Global Assessment of Gout, Observed, Median",[3]; Early Termination Visit,3.0
same,"Patient Global Assessment of Gout, Change from Baseline, Mean (SD)",[3]; [4],−4.0 (4.24)
same,"Patient Global Assessment of Gout, Change from Baseline, Median",[3]; [4],−4.0
same,"Patient Global Assessment of Gout, Observed, Mean (SD)",[3]; [4],2.0 (2.83)
same,"Patient Global Assessment of Gout, Observed, Median",[3]; [4],2.0
same,"Physician Global Assessment of Gout, Change from Baseline, Mean (SD)",[3]; [4],−7.0 (0.00)
same,"Physician Global Assessment of Gout, Change from Baseline, Median",[3]; [4],−7.0
same,"Physician Global Assessment of Gout, Observed, Mean (SD)",[3]; [4],0.5 (0.71)
same,"Physician Global Assessment of Gout, Observed, Median",[3]; [4],0.5
same,"Patient Global Assessment of Gout, Change from Baseline, Mean (SD)",[3]; Week 14,−2.5 (2.77)
same,"Patient Global Assessment of Gout, Change from Baseline, Median",[3]; Week 14,−2.5
same,"Patient Global Assessment of Gout, Observed, Mean (SD)",[3]; Week 14,3.1 (2.27)
same,"Patient Global Assessment of Gout, Observed, Median",[3]; Week 14,3.0
same,"Physician Global Assessment of Gout, Change from Baseline, Mean (SD)",[3]; Week 14,−4.2 (2.22)
same,"Physician Global Assessment of Gout, Change from Baseline, Median",[3]; Week 14,−5.0
same,"Physician Global Assessment of Gout, Observed, Mean (SD)",[3]; Week 14,1.9 (1.64)
same,"Physician Global Assessment of Gout, Observed, Median",[3]; Week 14,2.0
same,"Patient Global Assessment of Gout, Change from Baseline, Mean (SD)",[3]; Week 24,−3.7 (3.23)
same,"Patient Global Assessment of Gout, Change from Baseline, Median",[3]; Week 24,−3.0
same,"Patient Global Assessment of Gout, Observed, Mean (SD)",[3]; Week 24,2.0 (1.79)
same,"Patient Global Assessment of Gout, Observed, Median",[3]; Week 24,3.0
same,"Physician Global Assessment of Gout, Change from Baseline, Mean (SD)",[3]; Week 24,−5.3 (2.10)
same,"Physician Global Assessment of Gout, Change from Baseline, Median",[3]; Week 24,−6.0
same,"Physician Global Assessment of Gout, Observed, Mean (SD)",[3]; Week 24,0.8 (0.87)
same,"Physician Global Assessment of Gout, Observed, Median",[3]; Week 24,1.0
same,"Patient Global Assessment of Gout, Change from Baseline, Mean (SD)",[3]; Week 36,−3.4 (2.92)
same,"Patient Global Assessment of Gout, Change from Baseline, Median",[3]; Week 36,−4.0
same,"Patient Global Assessment of Gout, Observed, Mean (SD)",[3]; Week 36,2.1 (2.80)
same,"Patient Global Assessment of Gout, Observed, Median",[3]; Week 36,1.0
same,"Physician Global Assessment of Gout, Change from Baseline, Mean (SD)",[3]; Week 36,−5.9 (2.03)
same,"Physician Global Assessment of Gout, Change from Baseline, Median",[3]; Week 36,−6.0
same,"Physician Global Assessment of Gout, Observed, Mean (SD)",[3]; Week 36,0.7 (1.00)
same,"Physician Global Assessment of Gout, Observed, Median",[3]; Week 36,0.0
same,"Patient Global Assessment of Gout, Change from Baseline, Mean (SD)",[3]; Week 52/ET,−4.3 (0.58)
same,"Patient Global Assessment of Gout, Change from Baseline, Median",[3]; Week 52/ET,−4.0
same,"Patient Global Assessment of Gout, Observed, Mean (SD)",[3]; Week 52/ET,1.0 (1.00)
same,"Patient Global Assessment of Gout, Observed, Median",[3]; Week 52/ET,1.0
same,"Physician Global Assessment of Gout, Change from Baseline, Mean (SD)",[3]; Week 52/ET,−7.3 (0.58)
same,"Physician Global Assessment of Gout, Change from Baseline, Median",[3]; Week 52/ET,−7.0
same,"Physician Global Assessment of Gout, Observed, Mean (SD)",[3]; Week 52/ET,1.0 (0.00)
same,"Physician Global Assessment of Gout, Observed, Median",[3]; Week 52/ET,1.0
